One test relates to pancreatic islets. Put plainly: glucose-stimulated insulin secretion from pancreatic islets with carbamylcholine (FIG. 13). It is filed as cell-based, mouse. The settings on record: 0.1 mM carbamylcholine with 20 mM glucose; islets from wild type and PKCε−/− mice.
The test system of the next test is pancreatic beta cells. The settings on record: 100 nM glyburide in the presence of 20 mM glucose; cited from earlier work.

Molecules are shown by their SMILES.

As for `C[N+](C)(C)CCOC(N)=O.[Cl-]` [carbamylcholine], the glucose-stimulated insulin secretion result in the test on pancreatic islets is on record as “potentiation”.

As for `COc1ccc(Cl)cc1C(=O)NCCc1ccc(S(=O)(=O)NC(=O)NC2CCCCC2)cc1` [glyburide], in the test on pancreatic beta cells, the insulin secretion entry is “enhances insulin secretion”.

Source of the values: patent US8598146B2, “Methods for identifying modulators of protein kinase C-epsilon (PKCε) and method of treatment of aberrant glucose metabolism associated therewith” (Garvan Institute of Medical Research, priority 2003, dated 2013).
